# In the supplement of paper PMC10627819:
# Tests used:
# Assay in all cases: Bliss interaction score (quartile over a dose matrix) (fitness difference); higher = more antagonism (negative = synergy)
# [1] = system: B. subtilis 168
# In short: (§1)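 Fitness here means normalised growth, inferred for single drugs from the combination data. Growth was OD595 at entry into stationary phase, divided by the plate's robust no-drug mean and capped at 1. The Bliss score is observed minus expected fitness, with the expectation being the product, and its quartiles span technical, biological and donor/recipient replicates.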
# [2] = system: S. aureus DSM 20231
# In short: as §1
# [3] = system: S. aureus Newman
# In short: as §1
# [4] = system: S. pneumoniae D39V
# In short: as §1
# 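Further: first quartile when negative (synergy) and third quartile when positive (antagonism).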
SMILES,Bliss interaction score [1],Bliss interaction score [2],Bliss interaction score [3],Bliss interaction score [4],Bliss interaction score ([1]; main component drawn),Bliss interaction score ([2]; main component drawn),Bliss interaction score ([3]; main component drawn),Bliss interaction score ([4]; main component drawn)
CC(=O)Oc1ccccc1C(=O)O [Acetylsalicylicacid] + C1=CC(=CC(=C1)Cl)NN=C(C#N)C#N [CCCP],-0.0436,-0.138,-0.0296,-0.161,–,–,–,–
CC(=O)Oc1ccccc1C(=O)O [Acetylsalicylicacid] + C/C(=C\C(=O)OCCCCCCCCC(=O)O)C[C@@H]1OC[C@H](C[C@@H]2O[C@H]2[C@@H](C)[C@H](C)O)[C@@H](O)[C@H]1O [Pseudomonic acid],-0.2,-0.0241,-0.0211,-0.0974,–,–,–,–
CC(=O)Oc1ccccc1C(=O)O [Acetylsalicylicacid] + CC1(C)S[C@@H]2[C@H](NC(=O)Cc3ccccc3)C(=O)N2[C@H]1C(=O)O [PenicillinG],0.117,0.101,0.0702,-0.0595,–,–,–,–
CC(=O)Oc1ccccc1C(=O)O [Acetylsalicylicacid] + CC1(C)S[C@@H]2[C@H](NC(=O)[C@H](N)c3ccc(O)cc3)C(=O)N2[C@H]1C(=O)O [Amoxicillin],0.192,0.078,-0.0753,0.0431,–,–,–,–
CC(=O)Oc1ccccc1C(=O)O [Acetylsalicylicacid] + CC1=C(C(=O)O)N2C(=O)[C@@H](NC(=O)[C@H](N)c3ccccc3)[C@H]2SC1 [Cephalexin],0.108,0.0849,0.0494,0.241,–,–,–,–
CC(=O)Oc1ccccc1C(=O)O [Acetylsalicylicacid] + CC1=C\[C@@H](O)CC(=O)Cc2nc(co2)C(=O)N2CCC=C2C(=O)O[C@H](C(C)C)[C@H](C)/C=C/C(=O)NC\C=C\1 [Virginiamycin M1],-0.0602,-0.0657,-0.0537,-0.0556,–,–,–,–
CC(=O)Oc1ccccc1C(=O)O [Acetylsalicylicacid] + CC(=O)NC[C@H]1CN(c2ccc(N3CCOCC3)c(F)c2)C(=O)O1 [Linezolid],0.0401,-0.0728,0.0639,0.145,–,–,–,–
CC(=O)Oc1ccccc1C(=O)O [Acetylsalicylicacid] + CC(=O)O[C@H]1C[C@@]2(C)[C@@H](C[C@@H](O)[C@H]3[C@@]4(C)CC[C@@H](O)[C@@H](C)[C@@H]4CC[C@@]32C)/C1=C(\CCC=C(C)C)C(=O)O [Fusidic acid],-0.0821,0.0354,-0.0211,0.0675,–,–,–,–
CC(=O)Oc1ccccc1C(=O)O [Acetylsalicylicacid] + CC(C1CCC(C(O1)OC2C(CC(C(C2O)OC3C(C(C(CO3)(C)O)NC)O)N)N)N)NC [Gentamicin],–,–,–,–,0.286,0.165,0.0614,0.0535
CC(=O)Oc1ccccc1C(=O)O [Acetylsalicylicacid] + CCC(C)C1C(=O)NC(=C)C(=O)NC(C(=O)NC(CSCC(C(=O)N1)NC(=O)/C(=C/C)/NC(=O)C(C(C)CC)N)C(=O)NC2C(SCC(NC(=O)CNC(=O)C3CCCN3C2=O)C(=O)NC(CCCCN)C(=O)NC4C(SCC(NC(=O)CNC(=O)C(NC(=O)C(NC(=O)C(NC(=O)CNC4=O)C)CC(C)C)CCSC)C(=O)NC(CC(=O)N)C(=O)NC(CCSC)C(=O)NC(CCCCN)C(=O)NC5C(SCC6C(=O)NC(C(=O)NC(CSC(C(C(=O)N6)NC(=O)C(NC5=O)C)C)C(=O)NC(CO)C(=O)NC(C(C)CC)C(=O)NC(CC7=CN=CN7)C(=O)NC(C(C)C)C(=O)NC(=C)C(=O)NC(CCCCN)C(=O)O)CC8=CN=CN8)C)C)C)CC(C)C [Nisin],–,–,–,–,-0.0969,-0.113,-0.0598,-0.0424
CC(=O)Oc1ccccc1C(=O)O [Acetylsalicylicacid] + CCCCCCCCCC(=O)N[C@@H]1[C@H]([C@@H]([C@H](O[C@H]1OC2=C3C=C4C=C2OC5=C(C=C(C=C5)[C@H]([C@H]6C(=O)N[C@@H](C7=C(C(=CC(=C7)O)OC8[C@H]([C@H]([C@@H]([C@H](O8)CO)O)O)O)C9=C(C=CC(=C9)[C@H](C(=O)N6)NC(=O)[C@@H]4NC(=O)[C@@H]1C2=CC(=CC(=C2)OC2=C(C=CC(=C2)[C@H](C(=O)N[C@H](CC2=CC(=C(O3)C=C2)Cl)C(=O)N1)N)O)O)O)C(=O)O)O[C@H]1[C@@H]([C@H]([C@@H]([C@H](O1)CO)O)O)NC(=O)C)Cl)CO)O)O [Teicoplanin],–,–,–,–,0.206,0.0851,-0.0656,-0.045
CC(=O)Oc1ccccc1C(=O)O [Acetylsalicylicacid] + CCC[C@@H]1C[C@@H](C(=O)N[C@@H]([C@H]2O[C@H](SC)[C@H](O)[C@@H](O)[C@H]2O)[C@@H](C)O)N(C)C1 [Lincomycin],-0.0832,0.199,0.0556,0.0801,–,–,–,–
CC(=O)Oc1ccccc1C(=O)O [Acetylsalicylicacid] + CCC[C@@H]1C[C@@H](C(=O)N[C@@H]([C@H]2O[C@H](SC)[C@H](O)[C@@H](O)[C@H]2O)[C@H](C)Cl)N(C)C1 [Clindamycin],0.0404,0.0574,0.0829,-0.105,–,–,–,–
CC(=O)Oc1ccccc1C(=O)O [Acetylsalicylicacid] + CCN(CC)CCOC(=O)c1ccc(N)cc1 [Procaine],0.0531,0.0998,-0.0687,0.0662,–,–,–,–
CC(=O)Oc1ccccc1C(=O)O [Acetylsalicylicacid] + CCP(CC)CC.CC(=O)OC[C@@H]1[C@H]([C@@H]([C@H]([C@@H](O1)[S-])OC(=O)C)OC(=O)C)OC(=O)C.[Au+] [Auranofin],0.0526,-0.0726,0.0597,0.0631,–,–,–,–
CC(=O)Oc1ccccc1C(=O)O [Acetylsalicylicacid] + CC[C@H]1OC(=O)[C@H](C)C(=O)[C@H](C)[C@@H](O[C@@H]2O[C@H](C)C[C@H](N(C)C)[C@H]2O)[C@](C)(OC)C[C@@H](C)C(=O)[C@H](C)[C@H]2N(CCCCn3cnc(-c4cccnc4)c3)C(=O)O[C@]12C [Telithromycin],0.205,0.0695,0.0539,-0.043,–,–,–,–
CC(=O)Oc1ccccc1C(=O)O [Acetylsalicylicacid] + CC[C@H]1OC(=O)[C@H](C)[C@@H](O[C@H]2C[C@@](C)(OC)[C@@H](O)[C@H](C)O2)[C@H](C)[C@@H](O[C@@H]2O[C@H](C)C[C@H](N(C)C)[C@H]2O)[C@](C)(O)C[C@@H](C)C(=O)[C@H](C)[C@@H](O)[C@]1(C)O [Erythromycin],0.184,0.1,0.144,0.0745,–,–,–,–
CC(=O)Oc1ccccc1C(=O)O [Acetylsalicylicacid] + CC[C@H]1OC(=O)[C@H](C)[C@@H](O[C@H]2C[C@@](C)(OC)[C@@H](O)[C@H](C)O2)[C@H](C)[C@@H](O[C@@H]2O[C@H](C)C[C@H](N(C)C)[C@H]2O)[C@](C)(O)C[C@@H](C)CN(C)[C@H](C)[C@@H](O)[C@]1(C)O [Azithromycin],0.153,0.179,0.105,0.0486,–,–,–,–
CC(=O)Oc1ccccc1C(=O)O [Acetylsalicylicacid] + CC[C@H]1OC(=O)[C@H](C)[C@@H](O[C@H]2C[C@@](C)(OC)[C@@H](O)[C@H](C)O2)[C@H](C)[C@@H](O[C@@H]2O[C@H](C)C[C@H](N(C)C)[C@H]2O)[C@](C)(OC)C[C@@H](C)C(=O)[C@H](C)[C@@H](O)[C@]1(C)O [Clarithromycin],0.322,0.109,0.151,0.0695,–,–,–,–
